Data published in ChEMBL document CHEMBL1201862, “PubChem BioAssay data set” (2004).
Calls of active or inactive are those of the source.

Tests used:
[1] = target: Peroxisome proliferator-activated receptor gamma/Nuclear receptor coactivator 1 (Homo sapiens, UniProt P37231); test: (§1) TR-FRET dose response biochemical High Throughput Screening assay for agonists of the steroid receptor coactivator 1 (SRC-1) recruitment by the peroxisome proliferator-activated receptor gamma (PPAR gamma): non-selective agonists. [Related pubchem assays (depositor defined):AID1300, AID1808, AID504735, AID631]; type: protein assay
[2] = target: Peroxisome proliferator-activated receptor gamma/Nuclear receptor coactivator 3 (Homo sapiens, UniProt P37231); test: as §1, with “3 (SRC-3)” for “1 (SRC-1)”, “assays: 1301 (Confirmation screen.), 1048 (Primary screen.)]” for “assays (depositor defined):AID1300, AID1808, AID504735, AID631]”; type: functional
[3] = target: Peroxisome proliferator-activated receptor gamma/Nuclear receptor coactivator 2 (Homo sapiens, UniProt P37231); test: TR-FRET dose response biochemical High Throughput Screening assay for agonists of the steroid receptor coactivator 2 (SRC-2) recruitment by the peroxisome proliferator-activated receptor gamma (PPAR gamma): non-selective agonists. [Related pubchem assays: 1297, 1032 ]; type: functional
[4] = inhibitors of intracellular T. cruzi replication, confirmation, NIH3T3 host cells, beta-gal luminescence (AID 2044); type: functional, cell-based;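 also: intracellular parasites grown in NIH/3T3 mouse fibroblasts as host cells; luminescent beta-galactosidase reporter signal from transgenic T. cruzi replicating inside host cells; inhibitors lower the luminescence signal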
[5] = cytotoxicity toward NIH3T3 fibroblasts, dose response, counter-screen, cell-based, ATP luminescence, mouse fibroblasts (AID 2010); type: functional;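 also: cells exposed to compound for about 90 hours before reading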
[6] = target: T1, Short transient receptor potential channel 4 (Mus musculus, UniProt Q9QUQ5); test: mouse TRPC4 channel inhibitors, dose response, cell-based, HEK293 TRPC4/mu-opioid, Fluo-4 calcium (AID 434942); type: functional;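 also: potency of inhibitors blocking the TRPC4 calcium response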
T1 sequence (Q9QUQ5 whole entry): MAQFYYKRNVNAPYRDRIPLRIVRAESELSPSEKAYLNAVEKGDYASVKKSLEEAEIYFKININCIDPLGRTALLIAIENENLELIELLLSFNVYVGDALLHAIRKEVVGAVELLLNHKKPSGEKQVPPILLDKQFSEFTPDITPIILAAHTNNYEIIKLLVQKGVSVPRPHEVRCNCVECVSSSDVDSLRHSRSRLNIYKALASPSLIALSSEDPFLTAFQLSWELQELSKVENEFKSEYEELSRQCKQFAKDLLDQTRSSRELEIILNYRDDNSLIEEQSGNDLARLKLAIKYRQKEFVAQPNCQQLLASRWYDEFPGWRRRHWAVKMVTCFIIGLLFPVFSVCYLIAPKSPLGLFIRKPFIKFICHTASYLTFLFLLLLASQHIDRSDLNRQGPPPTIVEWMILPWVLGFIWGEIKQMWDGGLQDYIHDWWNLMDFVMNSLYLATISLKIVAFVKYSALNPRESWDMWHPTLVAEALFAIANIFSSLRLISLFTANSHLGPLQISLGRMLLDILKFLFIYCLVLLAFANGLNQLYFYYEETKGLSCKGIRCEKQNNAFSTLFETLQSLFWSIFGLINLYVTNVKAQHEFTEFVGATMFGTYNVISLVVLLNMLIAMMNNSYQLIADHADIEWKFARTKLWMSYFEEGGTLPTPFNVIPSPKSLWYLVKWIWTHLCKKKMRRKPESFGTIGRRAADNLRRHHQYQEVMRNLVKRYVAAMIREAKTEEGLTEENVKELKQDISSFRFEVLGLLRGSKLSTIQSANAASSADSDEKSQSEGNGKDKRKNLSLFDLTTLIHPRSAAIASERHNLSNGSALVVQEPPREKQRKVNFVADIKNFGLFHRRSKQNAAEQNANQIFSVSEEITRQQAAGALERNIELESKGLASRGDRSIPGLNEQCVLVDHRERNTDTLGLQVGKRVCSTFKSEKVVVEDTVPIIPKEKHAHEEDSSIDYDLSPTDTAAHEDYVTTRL

Estrogen receptor beta = Estrogen receptor beta (Homo sapiens, UniProt Q92731);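 also: recombinant ER-beta bound to coactivator SRC1 peptide in presence of estradiol agonist; inhibitors block coactivator peptide binding and lower the FRET signal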
Aminopeptidase N = target: T2, Aminopeptidase N (Plasmodium falciparum FcB1/Columbia, UniProt O96935); test: P. falciparum M1AAP inhibitors, biochemical, fluorogenic H-Leu-NHMec substrate, 1536-well (AID 1445); set-up: species or system Plasmodium falciparum 3D7, 3D7
T2 sequence (O96935 whole entry): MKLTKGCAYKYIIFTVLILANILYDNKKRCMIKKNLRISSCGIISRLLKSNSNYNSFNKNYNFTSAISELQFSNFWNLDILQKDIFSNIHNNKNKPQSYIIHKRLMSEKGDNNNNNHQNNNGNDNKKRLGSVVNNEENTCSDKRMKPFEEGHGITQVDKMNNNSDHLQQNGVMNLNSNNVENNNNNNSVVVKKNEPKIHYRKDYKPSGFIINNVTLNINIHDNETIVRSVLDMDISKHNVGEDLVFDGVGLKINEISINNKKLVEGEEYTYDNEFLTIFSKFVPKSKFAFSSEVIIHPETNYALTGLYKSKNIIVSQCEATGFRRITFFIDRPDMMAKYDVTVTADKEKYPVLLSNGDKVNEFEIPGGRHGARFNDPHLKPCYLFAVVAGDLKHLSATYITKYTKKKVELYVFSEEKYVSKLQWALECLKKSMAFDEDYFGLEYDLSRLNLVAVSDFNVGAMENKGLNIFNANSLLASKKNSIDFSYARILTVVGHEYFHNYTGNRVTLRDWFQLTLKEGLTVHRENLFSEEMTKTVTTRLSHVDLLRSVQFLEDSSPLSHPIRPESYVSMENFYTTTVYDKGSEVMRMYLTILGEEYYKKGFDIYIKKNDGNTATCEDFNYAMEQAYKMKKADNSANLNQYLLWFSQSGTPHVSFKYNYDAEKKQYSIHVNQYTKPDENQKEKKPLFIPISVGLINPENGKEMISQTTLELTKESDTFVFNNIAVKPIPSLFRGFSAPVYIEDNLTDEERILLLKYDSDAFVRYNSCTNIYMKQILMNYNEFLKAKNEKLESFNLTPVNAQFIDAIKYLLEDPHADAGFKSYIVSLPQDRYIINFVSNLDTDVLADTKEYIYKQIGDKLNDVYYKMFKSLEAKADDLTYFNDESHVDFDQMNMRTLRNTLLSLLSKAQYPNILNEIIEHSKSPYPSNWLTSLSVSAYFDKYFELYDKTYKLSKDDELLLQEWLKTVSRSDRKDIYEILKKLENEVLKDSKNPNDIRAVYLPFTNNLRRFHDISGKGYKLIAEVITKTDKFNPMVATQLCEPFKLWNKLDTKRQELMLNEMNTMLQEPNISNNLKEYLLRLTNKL

Cytochrome P450 2C19 = Cytochrome P450 2C19 (Homo sapiens, UniProt P33261); test: Cytochrome panel assay with activity outcomes. Panel member name: p450-cyp2c19 Compounds with AC50 equal or less than 10 uM are considered active; type: functional; conditions: read-out: AC50
Cytochrome P450 2D6 = Cytochrome P450 2D6 (Homo sapiens, UniProt P10635);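 also: CYP2D6 member of a cytochrome P450 panel assay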
Cytochrome P450 3A4 = Cytochrome P450 3A4 (Homo sapiens, UniProt P08684);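 also: CYP3A4 tested as one member of a cytochrome P450 panel screen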
[7] = microbe, parasite or virus in culture; type: functional; conditions: Mycobacterium tuberculosis
[8] = Luminescence Cell-Based Dose Retest to Confirm Inhibitors of Cancer Stem Cells. [Related pubchem assays (depositor defined):AID2717, AID2721]; type: functional; conditions: Homo sapiens
Cytochrome P450 1A2 = target: T3, Cytochrome P450 1A2 (Homo sapiens, UniProt P05177);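 also: PubChem cytochrome P450 panel assay, CYP1A2 panel member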
T3 sequence (P05177 whole entry): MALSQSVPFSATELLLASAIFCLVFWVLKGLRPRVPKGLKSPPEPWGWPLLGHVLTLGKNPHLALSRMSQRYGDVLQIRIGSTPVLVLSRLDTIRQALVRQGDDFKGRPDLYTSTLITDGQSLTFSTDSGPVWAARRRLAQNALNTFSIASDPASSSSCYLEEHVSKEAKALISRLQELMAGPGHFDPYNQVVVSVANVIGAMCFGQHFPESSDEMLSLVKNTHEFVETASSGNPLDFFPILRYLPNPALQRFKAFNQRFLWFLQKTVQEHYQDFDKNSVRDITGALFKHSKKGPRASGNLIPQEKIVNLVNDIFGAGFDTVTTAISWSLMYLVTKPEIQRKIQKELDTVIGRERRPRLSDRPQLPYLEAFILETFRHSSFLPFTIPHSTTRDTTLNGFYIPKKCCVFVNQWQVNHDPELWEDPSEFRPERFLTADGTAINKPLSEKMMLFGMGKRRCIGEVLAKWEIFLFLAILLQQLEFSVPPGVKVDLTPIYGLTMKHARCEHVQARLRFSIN

Cytochrome P450 2C9 = Cytochrome P450 2C9 (Homo sapiens, UniProt P11712)

Chain of Estrogen receptor beta (Q92731 whole entry): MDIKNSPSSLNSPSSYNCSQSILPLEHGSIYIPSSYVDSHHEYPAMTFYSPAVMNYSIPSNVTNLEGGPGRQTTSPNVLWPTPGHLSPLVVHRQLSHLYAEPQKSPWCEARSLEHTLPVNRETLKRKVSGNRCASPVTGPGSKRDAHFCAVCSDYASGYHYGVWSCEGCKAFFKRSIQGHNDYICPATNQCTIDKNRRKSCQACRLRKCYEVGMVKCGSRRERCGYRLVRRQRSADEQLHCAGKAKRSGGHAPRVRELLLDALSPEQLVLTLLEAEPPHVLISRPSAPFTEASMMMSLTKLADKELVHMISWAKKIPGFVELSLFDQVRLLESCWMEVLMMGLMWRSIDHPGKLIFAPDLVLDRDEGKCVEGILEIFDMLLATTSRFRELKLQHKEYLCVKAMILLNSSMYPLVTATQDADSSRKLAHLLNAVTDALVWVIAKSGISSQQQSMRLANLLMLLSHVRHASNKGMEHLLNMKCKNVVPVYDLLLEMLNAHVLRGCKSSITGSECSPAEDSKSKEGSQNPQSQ
Chain of Peroxisome proliferator-activated receptor gamma/Nuclear receptor coactivator 3 (P37231 whole entry): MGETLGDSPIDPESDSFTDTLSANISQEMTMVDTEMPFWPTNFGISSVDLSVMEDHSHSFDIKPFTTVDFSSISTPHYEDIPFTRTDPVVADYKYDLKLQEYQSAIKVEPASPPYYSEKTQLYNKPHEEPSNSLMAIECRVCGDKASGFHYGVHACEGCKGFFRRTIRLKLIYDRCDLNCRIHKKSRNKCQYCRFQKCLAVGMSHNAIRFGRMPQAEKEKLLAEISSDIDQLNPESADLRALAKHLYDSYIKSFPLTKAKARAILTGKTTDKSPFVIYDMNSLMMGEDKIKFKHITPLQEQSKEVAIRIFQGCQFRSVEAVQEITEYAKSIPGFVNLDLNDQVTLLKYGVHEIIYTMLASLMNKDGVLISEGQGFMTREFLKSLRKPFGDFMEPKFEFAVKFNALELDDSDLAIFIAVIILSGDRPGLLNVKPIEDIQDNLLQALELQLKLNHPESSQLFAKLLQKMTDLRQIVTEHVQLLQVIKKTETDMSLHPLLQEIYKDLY
Chain of Peroxisome proliferator-activated receptor gamma/Nuclear receptor coactivator 3 (Q9Y6Q9 whole entry, further chain): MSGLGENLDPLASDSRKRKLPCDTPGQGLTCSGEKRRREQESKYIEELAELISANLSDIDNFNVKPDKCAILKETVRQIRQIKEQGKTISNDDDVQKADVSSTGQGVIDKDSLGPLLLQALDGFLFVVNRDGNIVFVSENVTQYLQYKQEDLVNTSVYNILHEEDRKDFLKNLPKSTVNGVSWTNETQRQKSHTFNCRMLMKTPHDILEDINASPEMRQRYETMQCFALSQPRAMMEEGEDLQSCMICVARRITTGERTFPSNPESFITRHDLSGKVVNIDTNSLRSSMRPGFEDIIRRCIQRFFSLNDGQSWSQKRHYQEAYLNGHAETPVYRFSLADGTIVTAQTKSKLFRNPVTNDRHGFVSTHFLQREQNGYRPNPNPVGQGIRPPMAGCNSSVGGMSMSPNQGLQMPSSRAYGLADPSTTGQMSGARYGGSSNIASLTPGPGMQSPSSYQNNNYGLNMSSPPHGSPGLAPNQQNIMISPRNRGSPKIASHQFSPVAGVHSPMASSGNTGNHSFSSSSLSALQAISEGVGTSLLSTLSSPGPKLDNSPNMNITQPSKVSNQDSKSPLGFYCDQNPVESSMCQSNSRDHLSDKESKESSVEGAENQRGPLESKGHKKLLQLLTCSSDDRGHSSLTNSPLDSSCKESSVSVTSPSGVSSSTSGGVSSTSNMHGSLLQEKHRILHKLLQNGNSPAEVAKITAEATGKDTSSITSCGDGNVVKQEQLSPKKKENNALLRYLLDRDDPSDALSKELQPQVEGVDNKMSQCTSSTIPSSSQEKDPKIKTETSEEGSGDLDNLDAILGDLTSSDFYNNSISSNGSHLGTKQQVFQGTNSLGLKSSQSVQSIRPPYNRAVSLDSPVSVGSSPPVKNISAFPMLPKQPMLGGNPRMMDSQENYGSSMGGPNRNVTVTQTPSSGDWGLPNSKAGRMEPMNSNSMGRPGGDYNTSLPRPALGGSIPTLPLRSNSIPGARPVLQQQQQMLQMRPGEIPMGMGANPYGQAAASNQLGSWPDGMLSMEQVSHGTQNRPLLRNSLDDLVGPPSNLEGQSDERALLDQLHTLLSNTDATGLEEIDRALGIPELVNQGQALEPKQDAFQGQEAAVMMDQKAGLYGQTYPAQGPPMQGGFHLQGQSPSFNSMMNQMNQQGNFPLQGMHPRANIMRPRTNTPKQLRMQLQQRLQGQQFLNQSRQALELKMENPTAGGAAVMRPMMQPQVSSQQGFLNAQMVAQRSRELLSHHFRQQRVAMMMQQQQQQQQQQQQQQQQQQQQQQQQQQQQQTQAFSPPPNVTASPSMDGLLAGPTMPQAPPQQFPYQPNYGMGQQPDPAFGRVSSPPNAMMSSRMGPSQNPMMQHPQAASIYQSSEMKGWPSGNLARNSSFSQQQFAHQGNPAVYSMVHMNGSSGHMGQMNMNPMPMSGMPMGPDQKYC
Chain of Peroxisome proliferator-activated receptor gamma/Nuclear receptor coactivator 1 (P37231 whole entry): as the sequence (P37231 whole entry) above
Chain of Peroxisome proliferator-activated receptor gamma/Nuclear receptor coactivator 1 (Q15788 whole entry, further chain): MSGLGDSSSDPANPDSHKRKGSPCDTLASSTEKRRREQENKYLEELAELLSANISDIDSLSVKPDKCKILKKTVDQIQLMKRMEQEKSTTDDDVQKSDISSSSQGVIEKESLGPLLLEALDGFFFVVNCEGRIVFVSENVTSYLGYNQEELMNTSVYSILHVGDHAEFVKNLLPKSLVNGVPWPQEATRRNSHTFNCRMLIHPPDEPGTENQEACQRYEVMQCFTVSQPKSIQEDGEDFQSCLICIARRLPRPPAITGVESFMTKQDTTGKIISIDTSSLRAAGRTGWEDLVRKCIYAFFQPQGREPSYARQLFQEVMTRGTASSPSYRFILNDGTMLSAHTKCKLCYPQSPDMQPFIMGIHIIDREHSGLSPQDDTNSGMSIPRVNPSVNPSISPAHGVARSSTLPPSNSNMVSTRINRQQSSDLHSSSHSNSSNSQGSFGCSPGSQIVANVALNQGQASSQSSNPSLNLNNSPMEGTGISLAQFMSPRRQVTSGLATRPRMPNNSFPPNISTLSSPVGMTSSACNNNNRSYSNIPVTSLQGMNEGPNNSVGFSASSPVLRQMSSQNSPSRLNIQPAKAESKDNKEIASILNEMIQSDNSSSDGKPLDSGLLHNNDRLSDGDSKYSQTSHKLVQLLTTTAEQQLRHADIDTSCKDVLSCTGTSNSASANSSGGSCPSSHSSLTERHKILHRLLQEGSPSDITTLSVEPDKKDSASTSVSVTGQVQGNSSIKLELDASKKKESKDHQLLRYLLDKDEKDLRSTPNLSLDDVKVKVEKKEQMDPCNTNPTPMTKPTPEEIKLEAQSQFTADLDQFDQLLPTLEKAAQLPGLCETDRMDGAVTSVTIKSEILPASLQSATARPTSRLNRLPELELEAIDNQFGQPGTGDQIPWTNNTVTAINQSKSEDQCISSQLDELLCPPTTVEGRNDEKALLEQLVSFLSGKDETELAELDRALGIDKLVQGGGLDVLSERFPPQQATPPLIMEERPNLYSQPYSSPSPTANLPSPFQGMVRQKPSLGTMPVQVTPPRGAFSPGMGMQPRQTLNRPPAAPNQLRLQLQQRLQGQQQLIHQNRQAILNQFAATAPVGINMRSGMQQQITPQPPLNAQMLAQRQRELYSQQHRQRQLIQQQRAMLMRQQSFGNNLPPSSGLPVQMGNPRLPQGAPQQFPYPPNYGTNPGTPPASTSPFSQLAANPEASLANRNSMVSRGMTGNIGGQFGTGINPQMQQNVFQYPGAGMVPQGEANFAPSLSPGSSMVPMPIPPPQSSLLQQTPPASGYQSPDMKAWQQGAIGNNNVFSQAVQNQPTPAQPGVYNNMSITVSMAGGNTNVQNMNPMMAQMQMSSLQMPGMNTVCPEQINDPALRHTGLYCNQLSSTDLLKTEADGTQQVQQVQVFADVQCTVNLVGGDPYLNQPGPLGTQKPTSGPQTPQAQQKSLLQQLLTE
Chain of Cytochrome P450 2C19 (P33261 whole entry): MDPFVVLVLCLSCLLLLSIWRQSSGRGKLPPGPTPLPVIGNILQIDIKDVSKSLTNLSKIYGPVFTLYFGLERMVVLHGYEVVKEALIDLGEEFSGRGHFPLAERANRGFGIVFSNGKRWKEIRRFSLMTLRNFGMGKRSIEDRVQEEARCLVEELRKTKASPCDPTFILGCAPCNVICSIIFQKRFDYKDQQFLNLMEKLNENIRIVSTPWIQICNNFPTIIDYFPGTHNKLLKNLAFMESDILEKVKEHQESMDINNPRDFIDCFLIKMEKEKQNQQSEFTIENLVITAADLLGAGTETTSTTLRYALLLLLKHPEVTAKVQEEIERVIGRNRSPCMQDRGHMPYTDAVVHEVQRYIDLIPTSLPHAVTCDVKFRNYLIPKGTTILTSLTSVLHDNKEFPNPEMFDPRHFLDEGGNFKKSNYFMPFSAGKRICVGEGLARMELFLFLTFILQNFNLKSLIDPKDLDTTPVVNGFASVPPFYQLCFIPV

Cc1ccc2nc(NC(=S)NC(=O)c3ccco3)sc2c1
EC50 [1]: 43 µM (inactive) | EC50 [2]: > 79.4 µM (not active) | EC50 [3]: 51.8 µM (not active)

CCCCC(CC)C(=O)Nc1ncc([N+](=O)[O-])s1 (centres undefined)
EC50 [4]: 1.29 µM (active) | EC50 [5]: > 60 µM (not active) | EC50 [6]: 7.5 µM (active)

COc1ccc(C(C(=O)NC2CCCC2)N(C(=O)c2ccco2)c2ccc3c(c2)OCO3)cc1OC (centres undefined)
IC50 (Estrogen receptor beta): > 50 µM (not active)

O=C(Cc1cc(=O)oc2cc(O)ccc12)NCC1CCC(C(=O)O)CC1 (centres undefined)
IC50 (Aminopeptidase N): 65.9 µM (active)

O=C(NCc1cccs1)C1CCN(S(=O)(=O)c2ccc(Cl)cc2)CC1
IC50 (Aminopeptidase N): 89.3 µM (active)

O=C(NCc1cccc(F)c1)C1CCN(C(=O)c2sccc2-n2cccc2)CC1
IC50 (Aminopeptidase N): 100 µM (active)

COc1ccc2cc(C#N)c(SCC(=O)NNC(=O)Cc3ccccc3)nc2c1
EC50 [1]: 10.7 µM (inactive) | EC50 [2]: > 79.4 µM (not active) | EC50 [3]: 11.1 µM (not active) | AC50 (Cytochrome P450 2C19): 0.0398 µM (inconclusive) | AC50 (Cytochrome P450 2D6): 2.51 µM (inconclusive) | AC50 (Cytochrome P450 3A4): 1.26 µM (inconclusive)

CCCCOC(=O)c1c(C)oc2ccc(NS(=O)(=O)c3ccc4c5c(cccc35)C(=O)N4)cc12
CC50 [7]: > 40 µM (active) | IC50 (Estrogen receptor beta): 13.5 µM (active) | AC50 [8]: 9.4 µM (active)

CCn1c(=O)cc(SCC(=O)NCc2ccc(C)cc2)c2ccccc21
EC50 [1]: > 79.4 µM (inactive) | EC50 [2]: > 79.4 µM (not active) | EC50 [3]: > 26.5 µM (not active)

c1ccc(Cn2c(CN3CCCC3)nc3ccccc32)cc1
EC50 [6]: 2.11 µM (active) | AC50 (Cytochrome P450 1A2): 14.1 µM (inconclusive) | AC50 (Cytochrome P450 2C9): 35.5 µM (inconclusive)

O=C(CNS(=O)(=O)c1ccc2ccccc2c1)OCC(=O)c1ccc(Br)s1
EC50 [1]: 8.72 µM (active) | EC50 [2]: 36.5 µM (not active) | EC50 [3]: 4.58 µM (active)

CC(C)Cn1c(-c2cccs2)nc2ccccc21
IC50 (Estrogen receptor beta): > 50 µM (not active)
